Source: US6639121B1, “Inducible cancer model to study the molecular basis of host tumor cell interactions in vivo” (Dana-Farber Cancer Institute, Inc., priority 1999, dated 2003)

Key:
[1] = tested on: Tyr/Tet-RAS INK4a−/− melanoma cell lines; test: SCID explant tumorigenicity of melanoma cell lines; format: in vivo, mouse; conditions: SCID mice treated with doxycycline
Source text: To this end, we first assessed the impact of doxycycline withdrawal in different Tyr/Tet-RAS INK4a−/− tumor derived cell lines in cell culture. […] The derivative melanoma cell lines remained doxycycline-responsive as shown by their strict doxycycline-dependency for tumorigenic potential in SCID mice. Specifically, subcutaneous injection of purified Tyr/Tet-RAS INK4a−/− melanoma cell lines yielded tumors in SCID mice treated with doxycycline with 100% efficiency, while those mice not receiving doxycycline remained tumor-free after many months of observation (FIG. 3A). […] On the other hand, the data is also consistent with the possibility that tumor regression following doxycycline withdrawal may reflect a continued requirement for RAS in promoting and sustaining non-cell-autonomous tumor-host interactions that are essential for tumor growth and maintenance.
Primary tumors, derivative cell lines and SCID explant tumors. Transgenic mice were fed doxycycline drinking water (2 mg/ml sucrose water) and observed for spontaneous tumor development. Primary tumors were adapted to culture by mechanical mincing with sterilized razor blades and brief trypsinization and maintained on RPMI media containing 10% serum and supplemented with doxycycline (2 μg/ml media)^4. […]

[2] = tested on: Tyr/Tet-RAS INK4a−/− mice; test: Doxycycline-induced melanoma development in transgenic mice; format: in vivo, mouse; conditions: doxycycline in the drinking water from weaning
Source text: To develop a cancer model in which dominantly acting oncoproteins are somatically regulated in vivo, transgenic mouse lines harboring the reverse tetracycline transactivator^2 under the control of the tyrosinase gene promoter-enhancer elements (designated Tyr-rtTA) and another containing the H-RAS^V12G open reading frame driven by a minimal promoter containing multimerized tet-operons.^2,3 (designated Tet-RAS) were inter-crossed with INK4a+/− mice to generate cohorts of single and double transgenic mice (designated Tyr/Tet-RAS) homozygous null for INK4a. Upon weaning, a subset of single and double transgenic INK4a −/− mice were administered doxycycline in the drinking water^4. In the doxycycline-treated group, 10 of 40 Tyr/Tet-RAS INK4a−/− mice developed melanomas with an average latency of 60 days (FIG. 1A). […] The Tyr/Tet-RAS INK4a−/− melanomas shared all of the macroscopic features of the constitutive Tyr-RAS INK4a−/− melanomas 5, manifesting as amelanotic, invasive and highly vascular tumors—features reminiscent of nodular-type melanoma in humans (for example, see FIGS. 2A&B).
Production of the transgenic mice. The reverse tetracycline transactivator (rtTA) is a 1050 bp EcoRI/BamHI fragment isolated from pUHD172-1neo^2. The Tet promoter contains a XhoI/EcoRI fragment of CMV minimal promoter linked to the tet operator sequences^2. […]

C[C@H]1c2cccc(O)c2C(=O)C2=C(O)[C@]3(O)C(=O)C(C(N)=O)=C(O)[C@@H](N(C)C)[C@@H]3[C@@H](O)[C@@H]21 [doxycycline]
efficiency of tumor formation after subcutaneous injection [1]: 100%
average latency of melanoma development [2]: 60 days
